According to article PMC5861220, “The Cytochrome P450-Mediated Metabolism Alternation of Four Effective Lignans From Schisandra chinensis in Carbon Tetrachloride-Intoxicated Rats and Patients With Advanced Hepatocellular Carcinoma” (Frontiers in Pharmacology, 2018):
Where two headings read alike, the source gives them in different places.

Key:
CYP3A4/5 = assay: Lignan metabolism in human liver microsomes with ketoconazole; type: in vitro ADME; conditions: 5 μM
Protocol: (§1) The CYP450s involved in the metabolism of schisandrin, schisantherin A, deoxyshisandrin and γ-schisandrin in rat or human liver microsomes were confirmed by comparison of the metabolism ratio before and after the addition of selective inhibitors to CYP450 isozymes. […] The supernate was injected to HPLC-MS for analysis of the four lignans.

[1] = Pharmacokinetics of four lignans in rats after oral SC alcoholic extract; type: in vivo, rat; conditions: for AUC(0-t) / Cmax / half-life / CL/F / MRT last / Tmax: Sprague-Dawley, rat, plasma, po, 1.5 g/kg/day, oral SC alcoholic extract 1.5 g/kg/day for 4 days, n = 5; for CL/F: read-out: CLz/F (converted); for MRT last: read-out: MRT(0−t); for Tmax: read-out: Tmax
Protocol: The pharmacokinetic profiles of four lignans were studied in ALI rat after multiple oral administrations of SC alcoholic extract at dose of 1.5 g/kg/day. After the ALI rat was established, SC alcoholic extract suspended in 0.5% sodium carboxymethyl cellulose was given to ALI rats and the control via oral gavage once a day for 4 consecutive days. Before the last dosing, rats were fasted for 12 h while water was taken freely. Blood samples were collected at 0, 0.25, 0.5, 1, 2, 3, 4, 6, 8, 12, 24, 36, and 48 h after the last dosing. A cannula was surgically placed into the jugular vein for collection of blood samples (about 0.1 mL) and blood loss compensation using sterile isotonic saline in the pharmacokinetic study. Plasma was separated by centrifugation and stored at −20°C until analysis. Plasma concentrations of the four lignans were quantified using HPLC-MS analysis developed according to the reported method (Wang et al., [2008]).
Data fitting and pharmacokinetic parameter calculations were carried out using the Winnolin software. Non-compartmental analysis was used to calculate the pharmacokinetic parameters. Parameters, such as AUC and MRT, were calculated using statistical moment method.

rat liver = assay: In situ hepatic perfusion of four lignans; type: in vivo; conditions: hepatic perfusion 60 min, 10 μM, n = 3
Protocol: (§2) In situ liver perfusion was performed similarly as the method described previously (Uraki et al., [2016]). […] The perfusate consisted of Krebs–Hensleit buffer (pH 7.4) containing sodium taurocholate (4.75 mg/L), 1% bovine serum albumin, and glucose (1.2 g/L) was oxygenated using carbogen, 95% O2/5% CO2. The perfusate at 37°C was infused into the portal vein at a flow rate of 30 mL/min in a recirculatory manner. After 10-min equilibration, four schisandra lignans were added to the reservoir (final concentration of 10 μM). Perfusate (0.5 mL) and bile samples were collected at 0, 10, 20, 30, 40, 50, and 60 min after the addition of lignans. The same volume of blank perfusion buffer was immediately added to the reservoir after collection of the perfusate samples. After hepatic perfusion, rat was sacrificed and liver was removed, blotted dry, and weighed.

[2] = In situ hepatic perfusion of four lignans; type: in vivo, rat; conditions: Sprague-Dawley, rat, perfusate, perfusate AUC(0−1h), n = 3
Protocol: as §2

CYP1A2 = target: T1, CYP1A2 (Rattus norvegicus, UniProt P04799); assay: Lignan metabolism in rat liver microsomes with furafylline; type: in vitro ADME; conditions: 5 μM, + Furafylline 50 μM (CYP1A2)
T1 sequence (P04799 1-513): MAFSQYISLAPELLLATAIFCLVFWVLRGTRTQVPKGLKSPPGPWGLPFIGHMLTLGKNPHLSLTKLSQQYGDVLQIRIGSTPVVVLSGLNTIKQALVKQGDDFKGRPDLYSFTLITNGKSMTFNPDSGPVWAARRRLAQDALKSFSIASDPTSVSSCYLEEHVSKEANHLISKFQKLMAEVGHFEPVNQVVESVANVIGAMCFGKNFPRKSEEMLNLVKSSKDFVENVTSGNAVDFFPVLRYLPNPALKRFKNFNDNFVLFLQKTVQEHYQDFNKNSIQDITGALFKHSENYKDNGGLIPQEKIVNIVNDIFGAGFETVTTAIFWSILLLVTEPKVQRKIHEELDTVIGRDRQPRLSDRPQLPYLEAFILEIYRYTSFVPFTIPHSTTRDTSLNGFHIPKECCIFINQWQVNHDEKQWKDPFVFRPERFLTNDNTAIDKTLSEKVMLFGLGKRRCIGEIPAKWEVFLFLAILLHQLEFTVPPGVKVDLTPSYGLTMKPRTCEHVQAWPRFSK
Protocol: as §1

[3] = Identification of CYP450 isozymes in lignan metabolism, human liver microsomes (no inhibitor); type: in vitro ADME; conditions: human liver microsomes 0.5 mg/mL, 5 μM, Control (no inhibitor)
Protocol: as §1

CYP3A = assay: Lignan metabolism in rat liver microsomes with ketoconazole; type: in vitro ADME; conditions: 5 μM, + Ketoconazole 100 μM (CYP3A)
Protocol: as §1

[4] = system: rat intestine (jejunum segment); assay: In situ intestinal perfusion of four lignans; type: in vivo; conditions: for Perfusate (Percent of the initial dose) / Plasma (Percent of the initial dose) / Intestine (Percent of the initial dose) / Pblood / Plumen: 50 μM, n = 3; for Perfusate (Percent of the initial dose): intestinal perfusion 60 min; for Plasma (Percent of the initial dose) / Intestine (Percent of the initial dose) / Rise of cumulative plasma amount: intestinal perfusion; for Plasma (Percent of the initial dose): mesenteric vein blood; for Increase of remaining amount in perfusate: intestinal autoperfusion (60 min), CCl4-treated rats vs control; for Rise of cumulative plasma amount: CCl4-intoxicated rats vs control
Protocol: The surgical procedures of intestinal perfusion were conducted according to those published reports (Savina et al., [1981]). Hank's balanced salt solution (HBSS, pH 7.4) with four schisandra lignans (50 μM) at 37°C was infused into the jejunum segment at rate of 0.3 mL/min. Phenol Red (50 μM) was added to serve as a nonabsorbable marker for measuring water flux. Blood samples from mesenteric vein and perfusate were collected at 5-min interval. The plasma separated by centrifugation and perfusate was stored at −20°C until HPLC-MS analysis.
The permeability of four lignans across the rat intestine was calculated based on the disappearance of parent drug from the lumen (Plumen) as well as the appearance of the drug in blood (Pblood) using the following equations (Singhal et al., [1998]):
(1) Plumen = −Q/2πrlLnCout/Cin
(1) Pblood = ΔMB/Δt/2πrl{C}
where r is the radius of the perfused intestinal lumen; l is the length of the segment; Q is the flow rate of perfusate; Cin is the concentration of drug at the start of perfusion; and Cout is the steady-state concentration of drug exiting the lumen. ΔMB/Δt is the rate of drug appearance in mesenteric blood; and {C} is the logarithmic mean concentration of drug in the lumen.

[5] = Identification of CYP450 isozymes in lignan metabolism, rat liver microsomes (no inhibitor / overall); type: in vitro ADME; conditions: for Metabolism rate: rat liver microsomes 1 mg/mL, 5 μM, Control (no inhibitor); for CYP450 isozymes participated in the metabolism (≥20% inhibition): rat liver microsomes incubation with selective inhibitors
Protocol: as §1

Compound | Metabolism rate (CYP3A4/5) [nmol/min/mg] | AUC(0-t) ([1]; CCl4-intoxicated rats) [ng·h/mL] | Cmax ([1]; CCl4-intoxicated rats) [ng/mL] | half-life ([1]; CCl4-intoxicated rats) [h] | CL/F ([1]; CCl4-intoxicated rats) [mL/min/kg] | MRT last ([1]; CCl4-intoxicated rats) [h] | Tmax ([1]; CCl4-intoxicated rats) [h] | AUC(0-t) ([1]; Control (normal) rats) [ng·h/mL] | Cmax ([1]; Control (normal) rats) [ng/mL] | half-life ([1]; Control (normal) rats) [h] | CL/F ([1]; Control (normal) rats) [mL/min/kg] | MRT last ([1]; Control (normal) rats) [h] | Tmax ([1]; Control (normal) rats) [h] | Total amount of analyte in bile (rat liver; CCl4-intoxicated rats) [µg] | Total amount of analyte in liver (rat liver; CCl4-intoxicated rats) [µg] | Total amount of analyte in bile (rat liver; Control rats) [µg] | Total amount of analyte in liver (rat liver; Control rats) [µg] | AUC at 10 μM ([2]; pH 7.4, CCl4-intoxicated rats) [ng·h/mL] | AUC at 10 μM ([2]; pH 7.4, Control rats) [ng·h/mL] | Metabolism rate (CYP1A2) [nmol/min/mg] | further results
COc1cc2c(c(OC)c1OC)-c1c(cc(OC)c(OC)c1OC)C[C@H](C)[C@@H](C)C2 [Deoxyshisandrin, deoxyshisandrin] | 38.2 ± 4.3 | 16400 ± 5020 | 775 ± 239 | 13.1 ± 1.78 | 35.5 | 16.4 ± 1.02 | 5.8 ± 2.86 | 7880 ± 2810 | 564 ± 318 | 11.5 ± 2.08 | 80 | 11.7 ± 0.97 | 5 ± 2.24 | 0.75 ± 0.07 | 14.57 ± 2.41 | 1.29 ± 0.30 | 9.71 ± 1.32 | 3620 ± 100 | 3090 ± 120 | 85.2 ± 7.6 | Reduction of systemic clearance (CLz/F) ([1]; CCl4 intoxicated rats vs control rats): ~56%; Metabolism rate [3]: 162.5 ± 15.6 nmol/min/mg; Metabolism rate (CYP3A): 20.0 ± 1.6 nmol/min/mg; Perfusate (Percent of the initial dose) ([4]; CCl4-intoxicated rats): 91.77 ± 1.59% of the initial dose; Plasma (Percent of the initial dose) ([4]; CCl4-intoxicated rats): 0.83 ± 0.06% of the initial dose; Intestine (Percent of the initial dose) ([4]; CCl4-intoxicated rats): 1.79 ± 0.41% of the initial dose; Pblood ([4]; CCl4-intoxicated rats): 0.063 ± 0.018 × 10^−4 cm/s; Plumen ([4]; CCl4-intoxicated rats): 2.270 ± 0.363 × 10^−4 cm/s; Perfusate (Percent of the initial dose) ([4]; Control rats): 81.69 ± 1.77% of the initial dose; Plasma (Percent of the initial dose) ([4]; Control rats): 0.51 ± 0.03% of the initial dose; Intestine (Percent of the initial dose) ([4]; Control rats): 1.69 ± 0.30% of the initial dose; Pblood ([4]; Control rats): 0.053 ± 0.009 × 10^−4 cm/s; Plumen ([4]; Control rats): 2.337 ± 0.211 × 10^−4 cm/s; Increase of remaining amount in perfusate [4]: about 10%; Rise of cumulative plasma amount [4]: ~63%; Metabolism rate [5]: 87.5 ± 7.8 nmol/min/mg; CYP450 isozymes participated in the metabolism (≥20% inhibition) [5]: CYP2C11, CYP2D2, CYP2E1, and CYP3A
COc1cc2c(c(OC)c1OC)-c1c(cc(OC)c(OC)c1OC)C[C@](C)(O)[C@@H](C)C2 [Schisandrin, schisandrin] | 176.7 ± 27.6 | 74700 ± 26300 | 3980 ± 1530 | 7.74 ± 1.21 | 6.61 | 12.8 ± 0.25 | 6.2 ± 2.05 | 19800 ± 7490 | 1370 ± 617 | 10.1 ± 4.12 | 24.3 | 11.1 ± 0.97 | 6 | 1.06 ± 0.14 | 19.55 ± 2.07 | 1.15 ± 0.27 | 11.19 ± 1.18 | 3860 ± 70 | 3230 ± 110 | 215.1 ± 26.5 | Metabolism rate [3]: 263.4 ± 22.5 nmol/min/mg; Metabolism rate (CYP3A): 172.9 ± 8.6 nmol/min/mg; Perfusate (Percent of the initial dose) ([4]; CCl4-intoxicated rats): 93.40 ± 1.05% of the initial dose; Plasma (Percent of the initial dose) ([4]; CCl4-intoxicated rats): 0.84 ± 0.06% of the initial dose; Intestine (Percent of the initial dose) ([4]; CCl4-intoxicated rats): 1.98 ± 0.13% of the initial dose; Pblood ([4]; CCl4-intoxicated rats): 0.063 ± 0.008 × 10^−4 cm/s; Plumen ([4]; CCl4-intoxicated rats): 2.420 ± 0.788 × 10^−4 cm/s; Perfusate (Percent of the initial dose) ([4]; Control rats): 86.16 ± 1.39% of the initial dose; Plasma (Percent of the initial dose) ([4]; Control rats): 0.44 ± 0.06% of the initial dose; Intestine (Percent of the initial dose) ([4]; Control rats): 2.22 ± 0.96% of the initial dose; Pblood ([4]; Control rats): 0.046 ± 0.008 × 10^−4 cm/s; Plumen ([4]; Control rats): 2.490 ± 0.141 × 10^−4 cm/s; Increase of remaining amount in perfusate [4]: about 10%; Rise of cumulative plasma amount [4]: about 91%; Metabolism rate [5]: 233.3 ± 35.6 nmol/min/mg; CYP450 isozymes participated in the metabolism (≥20% inhibition) [5]: CYP2C6/11, CYP2E1, and CYP3A
